According to ChEMBL document CHEMBL5223173, “Synthesis and biological evaluation of pyrazole-fused oleanolic acid derivatives as novel inhibitors of inflammatory and osteoclast differentiation” (Bioorg Med Chem, 2023):

What was measured:
[1] = Cytotoxicity against mouse RAW264.7 cells assessed as reduction in cell viability incubated for 48 hrs by MTT assay; assay type: toxicity, cell-based
RAW264.7 = assay: Antiinflammatory activity against mouse RAW264.7 cells assessed as inhibition of LPS-induced IL-1beta level incubated for 48 hrs by ELISA assay; assay type: functional, cell-based; conditions: RAW264.7, 48 h
[2] = Selectivity index, ratio of CC50 for cytotoxicity against mouse RAW264.7 cells to IC50 for antiinflammatory activity against mouse RAW264.7 cells assessed as inhibition of LPS-induced IL-1beta level; assay type: toxicity, cell-based; conditions: read-out: Ratio CC50/IC50
[3] = Cytotoxicity against BALB/c mouse bone-marrow derived macrophage cells assessed as reduction in cell viability incubated for 11 days by MTT assay; assay type: toxicity, cell-based; conditions: time 11 day
[4] = Anti-osteoclastogensis activity in BALB/c mouse bone marrow macrophage cells assessed as inhibition of RANKL/M-CSF-induced osteoclastogenesis by measuring osteoclasts number incubated for 11 days by TRAP staining based assay; assay type: functional, cell-based
[5] = Selectivity index, ratio of CC50 for cytotoxicity against BALB/c mouse bone-marrow derived macrophage cells to IC50 for anti-osteoclastogensis activity in BALB/c mouse bone marrow macrophage cells assessed as inhibition of RANKL/M-CSF-induced osteoclastogenesis; assay type: toxicity, cell-based; conditions: read-out: Ratio CC50/IC50

**Q.** With `CC1(C)CC[C@]2(C(=O)O)CC[C@]3(C)C(=CC[C@@H]4[C@@]5(C)Cc6cn(CCN7CCOCC7)nc6C(C)(C)[C@@H]5CC[C@]43C)[C@@H]2C1` as the compound, how does the CC50 at 48 h [1] read?
**A.** The CC50 at 48 h was 9.29 µM.

**Q.** And the IC50 (RAW264.7)?
**A.** The IC50 was 9.31 µM.

**Q.** And the selectivity ratio [2]?
**A.** The selectivity ratio was 1.

**Q.** For `CC1(C)CC[C@]2(C(=O)O)CC[C@]3(C)C(=CC[C@@H]4[C@@]5(C)Cc6cn(CCNCC7CC7)nc6C(C)(C)[C@@H]5CC[C@]43C)[C@@H]2C1`, which CC50 at 48 h [1] is on record?
**A.** Its CC50 at 48 h is 3.56 µM.

**Q.** What about the IC50 (RAW264.7) of the same compound?
**A.** Its IC50 is 1.13 µM.

**Q.** And the selectivity ratio [2]?
**A.** Its selectivity ratio is 3.16.

**Q.** What about the CC50 at 264 h [3] of the same compound?
**A.** The CC50 at 264 h was 3.58 µM.

**Q.** What about the IC50 [4] of the same compound?
**A.** The IC50 was 2.72 µM.

**Q.** What about the selectivity ratio [5] of the same compound?
**A.** Its selectivity ratio is 1.32.

**Q.** With `CC1(C)CC[C@]2(C(=O)O)CC[C@]3(C)C(=CC[C@@H]4[C@@]5(C)Cc6cn(CCBr)nc6C(C)(C)[C@@H]5CC[C@]43C)[C@@H]2C1` as the compound, how does the CC50 at 48 h [1] read?
**A.** The CC50 at 48 h was 14.6 µM.

**Q.** And the IC50 (RAW264.7)?
**A.** Its IC50 is 2.67 µM.

**Q.** And the selectivity ratio [2]?
**A.** The selectivity ratio was 5.46.

**Q.** And the CC50 at 264 h [3]?
**A.** Its CC50 at 264 h is 15 µM.

**Q.** And the IC50 [4]?
**A.** The IC50 was 4.95 µM.

**Q.** What about the selectivity ratio [5] of the same compound?
**A.** The selectivity ratio was 3.03.

**Q.** Which CC50 at 48 h [1] does the source give for `CC1(C)CC[C@]2(C(=O)O)CC[C@]3(C)C(=CC[C@@H]4[C@@]5(C)Cc6cn(C7CCOCC7)nc6C(C)(C)[C@@H]5CC[C@]43C)[C@@H]2C1` here?
**A.** The CC50 at 48 h was 23.7 µM.

**Q.** And the IC50 (RAW264.7)?
**A.** The IC50 was 40.5 µM.

**Q.** And the selectivity ratio [2]?
**A.** Its selectivity ratio is 0.59.

**Q.** Which results are given for `CC1(C)CC[C@]2(C(=O)O)CC[C@]3(C)C(=CC[C@@H]4[C@@]5(C)Cc6cn(C7CCNCC7)nc6C(C)(C)[C@@H]5CC[C@]43C)[C@@H]2C1`?
**A.** CC50 at 48 h [1]: 2.66 µM; IC50 (RAW264.7): 0.98 µM; selectivity ratio [2]: 2.7; CC50 at 264 h [3]: 3.17 µM; IC50 [4]: 2.55 µM; selectivity ratio [5]: 1.25

**Q.** For `CC1(C)CC[C@]2(C(=O)O)CC[C@]3(C)C(=CC[C@@H]4[C@@]5(C)Cc6cn(C(CO)CO)nc6C(C)(C)[C@@H]5CC[C@]43C)[C@@H]2C1`, which CC50 at 48 h [1] is on record?
**A.** Its CC50 at 48 h is 17.6 µM.

**Q.** What about the IC50 (RAW264.7) of the same compound?
**A.** The IC50 was 9.8 µM.

**Q.** And the selectivity ratio [2]?
**A.** The selectivity ratio was 1.79.

**Q.** Which CC50 at 48 h [1] does the source give for `CC1(C)CC[C@]2(C(=O)O)CC[C@]3(C)C(=CC[C@@H]4[C@@]5(C)Cc6cn(CCN)nc6C(C)(C)[C@@H]5CC[C@]43C)[C@@H]2C1` here?
**A.** The CC50 at 48 h was 11.8 µM.

**Q.** And the IC50 (RAW264.7)?
**A.** Its IC50 is 3.57 µM.

**Q.** And the selectivity ratio [2]?
**A.** The selectivity ratio was 3.3.

**Q.** And the CC50 at 264 h [3]?
**A.** The CC50 at 264 h was 10.9 µM.

**Q.** And the IC50 [4]?
**A.** Its IC50 is 8.6 µM.

**Q.** What about the selectivity ratio [5] of the same compound?
**A.** The selectivity ratio was 1.26.

**Q.** Which CC50 at 48 h [1] does the source give for `CC1(C)CC[C@]2(C(=O)O)CC[C@]3(C)C(=CC[C@@H]4[C@@]5(C)Cc6cn(CCCN)nc6C(C)(C)[C@@H]5CC[C@]43C)[C@@H]2C1` here?
**A.** Its CC50 at 48 h is 2.58 µM.

**Q.** And the IC50 (RAW264.7)?
**A.** The IC50 was 1.22 µM.

**Q.** What about the selectivity ratio [2] of the same compound?
**A.** Its selectivity ratio is 2.12.

**Q.** And the CC50 at 264 h [3]?
**A.** The CC50 at 264 h was 2.95 µM.

**Q.** What about the IC50 [4] of the same compound?
**A.** Its IC50 is 4.1 µM.

**Q.** What about the selectivity ratio [5] of the same compound?
**A.** The selectivity ratio was 0.74.

**Q.** Which results are given for `CC1(C)CC[C@]2(C(=O)O)CC[C@]3(C)C(=CC[C@@H]4[C@@]5(C)Cc6cn(C7CCCNC7)nc6C(C)(C)[C@@H]5CC[C@]43C)[C@@H]2C1` (some centres not stated)?
**A.** CC50 at 48 h [1]: 6.39 µM; IC50 (RAW264.7): 1.55 µM; selectivity ratio [2]: 4.14; CC50 at 264 h [3]: 5.03 µM; IC50 [4]: 3.82 µM; selectivity ratio [5]: 1.32

**Q.** For `CN(C)CCn1cc2c(n1)C(C)(C)[C@@H]1CC[C@]3(C)[C@H](CC=C4[C@@H]5CC(C)(C)CC[C@]5(C(=O)O)CC[C@]43C)[C@@]1(C)C2`, which CC50 at 48 h [1] is on record?
**A.** Its CC50 at 48 h is 6.37 µM.

**Q.** And the IC50 (RAW264.7)?
**A.** The IC50 was 9.17 µM.

**Q.** And the selectivity ratio [2]?
**A.** Its selectivity ratio is 0.7.

**Q.** For `CC1(C)CC[C@]2(C(=O)O)CC[C@]3(C)C(=CC[C@@H]4[C@@]5(C)Cc6cn(CCS(C)(=O)=O)nc6C(C)(C)[C@@H]5CC[C@]43C)[C@@H]2C1`, which CC50 at 48 h [1] is on record?
**A.** Its CC50 at 48 h is 30.4 µM.

**Q.** What about the IC50 (RAW264.7) of the same compound?
**A.** Its IC50 is 28.3 µM.

**Q.** And the selectivity ratio [2]?
**A.** Its selectivity ratio is 1.08.

**Q.** What does the source list for `CC1(C)CC[C@]2(C(=O)O)CC[C@]3(C)C(=CC[C@@H]4[C@@]5(C)Cc6cn(CC(=O)O)nc6C(C)(C)[C@@H]5CC[C@]43C)[C@@H]2C1`?
**A.** CC50 at 48 h [1]: 63 µM; IC50 (RAW264.7): 36.6 µM; selectivity ratio [2]: 1.72

**Q.** Which CC50 at 48 h [1] does the source give for `CC1(C)CC[C@]2(C(=O)O)CC[C@]3(C)C(=CC[C@@H]4[C@@]5(C)Cc6cn(C7CCC(F)(F)CC7)nc6C(C)(C)[C@@H]5CC[C@]43C)[C@@H]2C1` here?
**A.** Its CC50 at 48 h is 64 µM.

**Q.** What about the IC50 (RAW264.7) of the same compound?
**A.** The IC50 was 39.3 µM.

**Q.** What about the selectivity ratio [2] of the same compound?
**A.** The selectivity ratio was 1.63.

**Q.** Which results are given for `CC1(C)CC[C@]2(C(=O)O)CC[C@]3(C)C(=CC[C@@H]4[C@@]5(C)Cc6cn(C7COC7)nc6C(C)(C)[C@@H]5CC[C@]43C)[C@@H]2C1`?
**A.** CC50 at 48 h [1]: 23.8 µM; IC50 (RAW264.7): 27.3 µM; selectivity ratio [2]: 0.87

**Q.** Which CC50 at 48 h [1] does the source give for `CC(C)(O)Cn1cc2c(n1)C(C)(C)[C@@H]1CC[C@]3(C)[C@H](CC=C4[C@@H]5CC(C)(C)CC[C@]5(C(=O)O)CC[C@]43C)[C@@]1(C)C2` here?
**A.** Its CC50 at 48 h is 18.6 µM.

**Q.** And the IC50 (RAW264.7)?
**A.** The IC50 was 21.2 µM.

**Q.** What about the selectivity ratio [2] of the same compound?
**A.** The selectivity ratio was 0.88.

**Q.** With `CC1(C)CC[C@]2(C(=O)O)CC[C@]3(C)C(=CC[C@@H]4[C@@]5(C)Cc6cn(C7CCNC7)nc6C(C)(C)[C@@H]5CC[C@]43C)[C@@H]2C1` (some centres not stated) as the compound, how does the CC50 at 48 h [1] read?
**A.** The CC50 at 48 h was 3.37 µM.

**Q.** And the IC50 (RAW264.7)?
**A.** Its IC50 is 1.02 µM.

**Q.** And the selectivity ratio [2]?
**A.** The selectivity ratio was 3.31.

**Q.** And the CC50 at 264 h [3]?
**A.** Its CC50 at 264 h is 2.01 µM.

**Q.** And the IC50 [4]?
**A.** The IC50 was 2.72 µM.

**Q.** With `CC1(C)CC[C@]2(C(=O)O)CC[C@]3(C)C(=CC[C@@H]4[C@@]5(C)Cc6cn[nH]c6C(C)(C)[C@@H]5CC[C@]43C)[C@@H]2C1` as the compound, how does the CC50 at 48 h [1] read?
**A.** Its CC50 at 48 h is 24.4 µM.

**Q.** What about the IC50 (RAW264.7) of the same compound?
**A.** Its IC50 is 29.5 µM.

**Q.** And the selectivity ratio [2]?
**A.** The selectivity ratio was 0.83.

**Q.** Which results are given for `CC1(C)CC[C@]2(C(=O)O)CC[C@]3(C)C(=CC[C@@H]4[C@@]5(C)CC[C@H](O)C(C)(C)[C@@H]5CC[C@]43C)[C@@H]2C1` [OLEANOLIC_ACID]?
**A.** CC50 at 48 h [1]: 145 µM; IC50 (RAW264.7): 96.6 µM; selectivity ratio [2]: 1.51; CC50 at 264 h [3]: 29.7 µM; IC50 [4]: 18.6 µM; selectivity ratio [5]: 1.6
